We go through four compounds from patent publication US20200352878A1, “USE OF CANNABINOIDS IN THE TREATMENT OF EPILEPSY” (priority 2018, published 2020).

Data set [1] can be described thus: Open-label, fixed sequence healthy volunteer drug-drug interaction trial of CBD and stiripentol (steady-state pharmacokinetics, safety). Type of data set: in vivo, human. The following applies: healthy volunteers. The method, then:
As part of an open-label, fixed sequence, healthy volunteer trial the primary objective was to investigate the impact of CBD (750 mg twice daily) on the steady-state pharmacokinetics of stiripentol (STP) (750 mg) and the reciprocal effect on CBD, 7-hydroxy-cannabidiol (7-OH-CBD) and 7-carboxy-cannabidiol (7-COOH-CBD).
Analyte plasma concentrations were determined using validated bioanalytical methods. A secondary objective was to evaluate the safety and tolerability of CBD when co-administered with STP.

Data set [2] concerns convulsive seizures in patients with treatment-resistant Dravet syndrome. The data set is described as follows: Clinical trial of adjunctive CBD in treatment-resistant Dravet syndrome; analysis of the interaction with concomitant AEDs. The class given is in vivo, human. The following applies: for Percentage of patients with greater than 50% reduction in seizures: Dravet syndrome patients aged 2-18 years, convulsive seizures over treatment period vs 4-week baseline, CBD 20 mg/kg/day or placebo added to current AEDs. The method, then: Following completion of a 4-week baseline period, patients were randomized to receive either 20 mg/kg/day CBD (n=61) or placebo (n=59). CBD or placebo were added to their current anti-epileptic treatment which remained stable over the treatment period of the study.
Seizure counts were reported daily via an Interactive Voice Response System. Convulsive seizures were defined as all countable atonic, tonic, clonic, and tonic-clonic seizures. The primary efficacy end point was percent change from baseline in convulsive seizures.
During a 4-week baseline period, patients were required to have at least 4 convulsive seizures (tonic-clonic, clonic, tonic or atonic) while on stable AED therapy. Patients had previously failed a median of 4 prior AEDs and 93% were taking 2 or more concomitant AEDs during the trial. The most commonly used concomitant AEDs (>25% of patients) were clobazam, valproate, stiripentol, levetiracetam, and topiramate.
Following the trial statistical analysis was performed on the various patient groups to determine whether there was an interaction between any of the concomitant AEDs that the patients were taking.
Table 6 below describes the percentage of patients that recorded a 50% reduction in convulsive seizures over the treatment period.

[3] abbreviates: CBD 750 mg twice daily, STP 750 mg, plasma.

The structures appear in SMILES notation.

Regarding `C=C(C)[C@@H]1CCC(C(=O)O)=C[C@H]1c1c(O)cc(CCCCC)cc1O` [7-COOH-CBD, 7-carboxy-cannabidiol], in data set [1] (setting [3]), the “reduction of exposure by co-administered STP” value was determined as 13%.
The same measure, in the same setting: next, `C=C(C)[C@@H]1CCC(CO)=C[C@H]1c1c(O)cc(CCCCC)cc1O` [7-OH-CBD, 7-hydroxy-cannabidiol]: 29%.
For `C=C(C)[C@@H]1CCC(C)=C[C@H]1c1c(O)cc(CCCCC)cc1O` [CBD, cannabidiol], the “median percent change from baseline in reduction of convulsive seizures, compared with placebo” value in data set [2] (CBD 20 mg/kg/day group (n=61) vs placebo (n=59), p=0.0123) is reported as “statistically superior to placebo”. Moreover, the “effect of co-administration of STP on CBD exposure” value in data set [1] (setting [3]) is given as “no effect”. Further, the “most common adverse event (AE)” value in data set [1] (CBD co-administered with STP) is given as “diarrhoea”.
Consider `CC(C)(C)C(O)/C=C/c1ccc2c(c1)OCO2` (stereo not shown) [Stiripentol, stiripentol], for which the “Percentage of patients with greater than 50% reduction in seizures” value in data set [2] and in data set [2] (listed as stiripentol) was 14% each time.
